Here are results for 17 compounds from patent US8129371B2, “Thienopyrimidine and pyrazolopyrimidine compounds and their use as mTOR kinase and PI3 kinase inhibitors” (Wyeth LLC, priority 2007, dated 2012).

One assay addresses T1, Human mTOR (FLAG-TOR) (Homo sapiens, UniProt P42345).
T1 construct: FLAG
The assay can be described thus: Human mTOR kinase assay with purified enzyme, DELFIA format. The class given is biochemical. The procedure, abridged:
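DELFIA readout: Eu-anti-P(T389)-S6K antibody (40 ng/mL, 1 h) on captured His6-S6K from the stopped reaction. Kinase step used purified FLAG-tagged human mTOR with test compound in HEPES (pH 7.4)/MnCl2/DTT buffer, 2 h at room temperature (linear 1–6 h), terminated by EDTA/EGTA.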

Assay [1] deals with T2, PI3K (Homo sapiens, UniProt P42336).
T2 construct: PI3 Kinase α IC50; other: PI3 Kinase α; other: PI3 Kinase α isoform, fluorescence polarization
The assay can be described thus: Fluorescence polarization assay for PI3K. Format: biochemical. The conditions noted are these: read-out: PI3 Kinase α IC50. The procedure, abridged: (§1)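 Fluorescence-polarization competition readout: after 30–60 min of PIP2/ATP turnover in 1% DMSO, a stop mix with GST-GRP (70 nM) and red probe (10 nM) was added.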
In general terms: Fluorescence polarisation rises when a labelled molecule tumbles more slowly, as on binding a larger partner.

The target in assay [2] is T3, PI3K (Homo sapiens, UniProt P48736).
T3 construct: PI3 Kinase γ IC50; other: PI3 Kinase γ; other: PI3 Kinase γ isoform, fluorescence polarization
The assay can be described thus: Fluorescence polarization assay for PI3K. Format: biochemical. The settings on record: read-out: PI3 Kinase γ IC50. The procedure, abridged: as §1

The next assay relates to prostate line LNCap. The assay can be described thus: In vitro cell culture growth assay (MTS), LNCap. The class given is cell-based. The conditions noted are these: Homo sapiens, LNCaP, 72 h, LNCap cells, three days after drug treatment. The procedure, abridged: (§2)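 The readout was MTS dye metabolism at 490 nm, taken after 3-day drug exposure that began the day after seeding. Growth was expressed as percent of vehicle-treated wells in the same plate.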

For another assay, the system named is breast line MDA468. The assay can be described thus: In vitro cell culture growth assay (MTS), MDA468. The settings on record: Homo sapiens, 72 h, MDA468 cells, three days after drug treatment. Format: cell-based. The procedure, abridged:
as §2

Where [3] appears, read: purified human mTOR enzyme, DELFIA format.
Setting [4] is: PI3 Kinase α isoform, fluorescence polarization.
[5] abbreviates: PI3 Kinase γ isoform, fluorescence polarization.

Molecules are shown by their SMILES. Read-outs that look alike come from different tables or passages of the source.

The term IC50 denotes the concentration needed to halve the response being measured.

T3 sequence (P48736 whole entry, canonical isoform): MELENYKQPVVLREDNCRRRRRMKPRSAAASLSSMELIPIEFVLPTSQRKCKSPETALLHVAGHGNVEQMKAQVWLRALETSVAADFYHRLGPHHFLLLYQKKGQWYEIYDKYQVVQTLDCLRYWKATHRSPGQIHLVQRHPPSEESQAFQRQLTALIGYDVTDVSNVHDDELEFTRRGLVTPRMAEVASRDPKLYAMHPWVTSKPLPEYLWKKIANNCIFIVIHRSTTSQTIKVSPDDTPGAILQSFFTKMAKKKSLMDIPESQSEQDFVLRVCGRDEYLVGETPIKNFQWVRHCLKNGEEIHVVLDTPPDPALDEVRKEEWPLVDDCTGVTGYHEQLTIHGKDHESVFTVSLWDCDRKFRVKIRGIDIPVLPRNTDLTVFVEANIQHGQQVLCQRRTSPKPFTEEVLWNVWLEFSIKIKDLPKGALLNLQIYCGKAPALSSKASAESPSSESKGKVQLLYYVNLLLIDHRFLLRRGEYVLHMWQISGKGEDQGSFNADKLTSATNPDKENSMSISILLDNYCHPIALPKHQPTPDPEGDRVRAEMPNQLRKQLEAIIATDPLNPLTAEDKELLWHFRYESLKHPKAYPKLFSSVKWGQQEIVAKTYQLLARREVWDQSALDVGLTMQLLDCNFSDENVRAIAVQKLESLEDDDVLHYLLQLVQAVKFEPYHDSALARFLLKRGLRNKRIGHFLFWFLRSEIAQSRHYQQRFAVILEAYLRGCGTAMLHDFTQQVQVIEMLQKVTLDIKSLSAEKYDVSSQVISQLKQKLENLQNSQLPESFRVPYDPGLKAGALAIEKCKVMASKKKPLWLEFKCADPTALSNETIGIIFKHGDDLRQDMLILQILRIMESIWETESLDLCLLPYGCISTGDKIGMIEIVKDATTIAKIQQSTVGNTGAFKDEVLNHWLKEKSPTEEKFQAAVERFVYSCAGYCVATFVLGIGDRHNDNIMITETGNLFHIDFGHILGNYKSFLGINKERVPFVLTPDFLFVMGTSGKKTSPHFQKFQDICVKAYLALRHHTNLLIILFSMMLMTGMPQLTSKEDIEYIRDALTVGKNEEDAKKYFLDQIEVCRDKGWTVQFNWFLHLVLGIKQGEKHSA
T2 sequence (P42336 whole entry, canonical isoform): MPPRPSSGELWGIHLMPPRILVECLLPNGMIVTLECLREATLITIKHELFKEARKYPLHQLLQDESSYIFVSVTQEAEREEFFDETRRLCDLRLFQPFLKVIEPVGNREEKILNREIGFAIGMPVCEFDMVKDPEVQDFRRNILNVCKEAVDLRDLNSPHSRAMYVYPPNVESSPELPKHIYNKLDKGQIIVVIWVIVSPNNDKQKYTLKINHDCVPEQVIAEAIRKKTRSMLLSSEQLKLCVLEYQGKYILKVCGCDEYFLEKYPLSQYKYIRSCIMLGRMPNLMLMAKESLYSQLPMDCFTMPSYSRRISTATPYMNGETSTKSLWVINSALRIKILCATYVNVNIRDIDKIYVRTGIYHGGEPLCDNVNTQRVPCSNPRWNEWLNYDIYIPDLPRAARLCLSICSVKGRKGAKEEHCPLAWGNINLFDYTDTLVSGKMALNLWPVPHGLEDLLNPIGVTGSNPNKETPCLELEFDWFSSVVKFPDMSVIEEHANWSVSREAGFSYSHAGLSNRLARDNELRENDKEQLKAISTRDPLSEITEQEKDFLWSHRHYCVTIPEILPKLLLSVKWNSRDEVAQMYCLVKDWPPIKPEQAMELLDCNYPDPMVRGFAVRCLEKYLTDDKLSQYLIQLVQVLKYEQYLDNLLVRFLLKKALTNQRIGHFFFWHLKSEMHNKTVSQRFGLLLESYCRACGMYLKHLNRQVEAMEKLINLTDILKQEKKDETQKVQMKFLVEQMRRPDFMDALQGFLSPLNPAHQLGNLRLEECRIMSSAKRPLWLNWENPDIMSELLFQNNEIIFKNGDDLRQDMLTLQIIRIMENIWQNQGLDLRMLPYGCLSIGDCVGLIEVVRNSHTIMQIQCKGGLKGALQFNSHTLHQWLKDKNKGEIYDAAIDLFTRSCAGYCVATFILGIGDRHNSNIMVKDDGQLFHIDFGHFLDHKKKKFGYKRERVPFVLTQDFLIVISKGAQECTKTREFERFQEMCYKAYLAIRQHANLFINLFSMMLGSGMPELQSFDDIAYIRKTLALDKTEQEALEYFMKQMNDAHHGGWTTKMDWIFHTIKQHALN

For `O=C(Nc1ccccc1)Nc1ccc(-c2nc(N3CC4CCC(C3)O4)c3cnn(C4CCN(Cc5cccnc5)CC4)c3n2)cc1` [Example 17, 1-(4-{4-(8-oxa-3-azabicyclo[3.2.1]oct-3-yl)-1-[1-(pyridin-3-ylmethyl)piperidin-4-yl]-1H-pyrazolo[3,4-d]pyrimidin-6-yl}phenyl)-3-phenylurea], the IC50 against Human mTOR (FLAG-TOR) amounted to 0.61 nM; on PI3K [1] (PI3 Kinase α) it was 222 nM; on PI3K [2] (PI3 Kinase γ) it was 1860 nM; with prostate line LNCap, 0.8 nM; in the assay with breast line MDA468, 10 nM.

As to `O=C(Nc1ccc(-c2nc(N3CC4CCC(C3)O4)c3cnn(CC(F)(F)F)c3n2)cc1)Nc1cccc(CO)c1` [Example 255, 1-[3-(hydroxymethyl)phenyl]-3-{4-[4-(8-oxa-3-azabicyclo[3.2.1]oct-3-yl)-1-(2,2,2-trifluoroethyl)-1H-pyrazolo[3,4-d]pyrimidin-6-yl]phenyl}urea], the IC50 was 0.595 nM on Human mTOR (FLAG-TOR); 105 nM on PI3K [1] (PI3 Kinase α); 730 nM on PI3K [2] (PI3 Kinase γ); 6 nM with prostate line LNCap; 30 nM with breast line MDA468.

In the case of `CN1CCN(Cc2cc3nc(-c4ccc(NC(=O)Nc5ccncc5)cc4)nc(N4CC5CCC(C4)O5)c3s2)CC1` [Example 427, 1-(4-{6-[(4-methylpiperazin-1-yl)methyl]-4-(8-oxa-3-azabicyclo[3.2.1]oct-3-yl)thieno[3,2-d]pyrimidin-2-yl}phenyl)-3-pyridin-4-ylurea], the IC50 against Human mTOR (FLAG-TOR) (setting [3]) is 3.7 nM; on PI3K [1] (setting [4]) it was 86 nM; on PI3K [2] (setting [5]), 1270 nM; in the assay with prostate line LNCap, 200 nM; in the assay with breast line MDA468, 390 nM.

On to `CCn1ncc2c(N3CC4CCC(C3)O4)nc(-c3ccc(NC(=O)NCC4CCN(C)CC4)cc3)nc21` [Example 226, 1-{4-[1-ethyl-4-(8-oxa-3-azabicyclo[3.2.1]oct-3-yl)-1H-pyrazolo[3,4-d]pyrimidin-6-yl]phenyl}-3-[(1-methylpiperidin-4-yl)methyl]urea], for which the IC50 against Human mTOR (FLAG-TOR) was 230 nM; at PI3K [1] (PI3 Kinase α) it was 4150 nM; on PI3K [2] (PI3 Kinase γ), over 10000 nM; in the assay with prostate line LNCap it was 700 nM; in the assay on breast line MDA468, 1300 nM.

For the compound `COC(=O)N1CCC(n2ncc3c(N4CC5CCC(C4)O5)nc(-c4ccc(NC(=O)NCCN(C)C)cc4)nc32)CC1` [Example 169, methyl 4-{6-[4-({[2-(dimethylamino)ethyl]carbamoyl}amino)phenyl]-4-(8-oxa-3-azabicyclo[3.2.1]oct-3-yl)-1H-pyrazolo[3,4-d]pyrimidin-1-yl}piperidine-1-carboxylate], the IC50 is 40.5 nM at Human mTOR (FLAG-TOR); 422 nM at PI3K [1] (PI3 Kinase α); 5450 nM on PI3K [2] (PI3 Kinase γ); 500 nM in the assay with prostate line LNCap; 2200 nM in the assay on breast line MDA468.

Regarding `CC(C)n1ncc2c(N3CC4CCC(C3)O4)nc(-c3ccc(NC(=O)Nc4ccncc4)cc3)nc21` [Example 149, 1-{4-[1-isopropyl-4-(8-oxa-3-azabicyclo[3.2.1]oct-3-yl)-1H-pyrazolo[3,4-d]pyrimidin-6-yl]phenyl}-3-pyridin-4-ylurea], the IC50 on Human mTOR (FLAG-TOR) is 0.125 nM; at PI3K [1] (PI3 Kinase α), 40 nM; on PI3K [2] (PI3 Kinase γ), 342 nM; in the assay with prostate line LNCap it was under 1 nM; in the assay with breast line MDA468, 4 nM.

Regarding `CS(=O)(=O)N1CCN(Cc2cc3nc(-c4ccc(NC(=O)Nc5ccncc5)cc4)nc(N4CC5CCC(C4)O5)c3s2)CC1` [Example 434, 1-{4-[6-{[4-(methylsulfonyl)piperazin-1-yl]methyl}-4-(8-oxa-3-azabicyclo[3.2.1]oct-3-yl)thieno[3,2-d]pyrimidin-2-yl]phenyl}-3-pyridin-4-ylurea], the IC50 worked out at 0.445 nM against Human mTOR (FLAG-TOR) (setting [3]); 8 nM on PI3K [1] (setting [4]); 330 nM on PI3K [2] (setting [5]); 120 nM with prostate line LNCap; 180 nM in the assay with breast line MDA468.

With `CN(C)CCn1ncc2c(N3CC4CCC(C3)O4)nc(-c3ccc(NC(=O)Nc4ccccc4)cc3)nc21` [Example 156, 1-(4-{1-[2-(dimethylamino)ethyl]-4-(8-oxa-3-azabicyclo[3.2.1]oct-3-yl)-1H-pyrazolo[3,4-d]pyrimidin-6-yl}phenyl)-3-phenylurea], the IC50 came out at 2.65 nM against Human mTOR (FLAG-TOR); 160 nM on PI3K [1] (PI3 Kinase α); 1530 nM at PI3K [2] (PI3 Kinase γ); 1 nM in the assay with prostate line LNCap; 68 nM in the assay on breast line MDA468.

`CNC(=O)Nc1ccc(-c2nc(N3CC4CCC(C3)O4)c3cnn(C4CCC(N5CCCC5)CC4)c3n2)cc1` (stereo not shown) [Example 331, 1-methyl-3-{4-[4-(8-oxa-3-azabicyclo[3.2.1]oct-3-yl)-1-(4-pyrrolidin-1-ylcyclohexyl)-1H-pyrazolo[3,4-d]pyrimidin-6-yl]phenyl}urea]: the IC50 is 8.05 nM against Human mTOR (FLAG-TOR) (setting [3]); 606 nM on PI3K [1] (setting [4]); 5320 nM on PI3K [2] (setting [5]); 380 nM in the assay with prostate line LNCap; 1200 nM in the assay with breast line MDA468.

Consider `COC(=O)N1CCC(n2ncc3c(N4C5CCC4COC5)nc(-c4ccc(NC(=O)Nc5ccc(N6CCN(C)CC6)cc5)cc4)nc32)CC1` [Example 363, methyl 4-{6-[4-({[4-(4-methylpiperazin-1-yl)phenyl]carbamoyl}amino)phenyl]-4-(3-oxa-8-azabicyclo[3.2.1]oct-8-yl)-1H-pyrazolo[3,4-d]pyrimidin-1-yl}piperidine-1-carboxylate], for which the IC50 on Human mTOR (FLAG-TOR) (setting [3]) was 0.545 nM; on PI3K [1] (setting [4]), 1590 nM; at PI3K [2] (setting [5]), 3240 nM; in the assay with prostate line LNCap it was under 1 nM; in the assay with breast line MDA468, 1 nM.

In the case of `CNC(=O)Nc1ccc(-c2nc(N3CC4CCC(C3)O4)c3cnn([C@H]4CC[C@@H](OC)CC4)c3n2)cc1` (relative stereo) [Example 387, 1-{4-[1-(cis-4-methoxycyclohexyl)-4-(8-oxa-3-azabicyclo[3.2.1]oct-3-yl)-1H-pyrazolo[3,4-d]pyrimidin-6-yl]phenyl}-3-methylurea], the IC50 on Human mTOR (FLAG-TOR) (setting [3]) was 0.33 nM; on PI3K [1] (setting [4]) it was 705 nM; at PI3K [2] (setting [5]) it was 404 nM; in the assay with prostate line LNCap it was 1 nM; in the assay with breast line MDA468 it was 19 nM.

`CCn1ncc2c(N3CC4CCC(C3)O4)nc(-c3ccc(NC(=O)Nc4cccnc4)cc3)nc21` [Example 47, 1-{4-[1-ethyl-4-(8-oxa-3-azabicyclo[3.2.1]oct-3-yl)-1H-pyrazolo[3,4-d]pyrimidin-6-yl]phenyl}-3-pyridin-3-ylurea]: the IC50 against Human mTOR (FLAG-TOR) was 0.11 nM; on PI3K [1] (PI3 Kinase α), 160 nM; at PI3K [2] (PI3 Kinase γ) it was 2720 nM; in the assay with prostate line LNCap, under 0.8 nM; with breast line MDA468 it was 1.2 nM.

For the compound `CCn1ncc2c(N3CC4CCC(C3)O4)nc(-c3ccc(NC(=O)Nc4ccc(NC)nc4)cc3)nc21` [Example 286, 1-{4-[1-ethyl-4-(8-oxa-3-azabicyclo[3.2.1]oct-3-yl)-1H-pyrazolo[3,4-d]pyrimidin-6-yl]phenyl}-3-[6-(methylamino)pyridin-3-yl]urea], the IC50 against Human mTOR (FLAG-TOR) was 0.9 nM; at PI3K [1] (PI3 Kinase α), 270 nM; at PI3K [2] (PI3 Kinase γ) it was 14900 nM; in the assay on prostate line LNCap, 17 nM; in the assay with breast line MDA468, 200 nM.

In the case of `CCn1ncc2c(N3CC4CCC(C3)O4)nc(-c3ccc(NC(=O)NC4CCN(C)CC4)cc3)nc21` [Example 228, 1-{4-[1-ethyl-4-(8-oxa-3-azabicyclo[3.2.1]oct-3-yl)-1H-pyrazolo[3,4-d]pyrimidin-6-yl]phenyl}-3-(1-methylpiperidin-4-yl)urea], the IC50 at Human mTOR (FLAG-TOR) was 31.5 nM; at PI3K [1] (PI3 Kinase α) it was 4500 nM; at PI3K [2] (PI3 Kinase γ), over 10000 nM; in the assay with prostate line LNCap, 490 nM; in the assay with breast line MDA468, 900 nM.

With `CNC(=O)Nc1ccc(-c2nc(N3CC4CCC(C3)O4)c3cnn(CCF)c3n2)cc1` [Example 241, 1-{4-[1-(2-fluoroethyl)-4-(8-oxa-3-azabicyclo[3.2.1]oct-3-yl)-1H-pyrazolo[3,4-d]pyrimidin-6-yl]phenyl}-3-methylurea], the IC50 at Human mTOR (FLAG-TOR) was 0.95 nM; on PI3K [1] (PI3 Kinase α) it was 551 nM; at PI3K [2] (PI3 Kinase γ), over 10000 nM; in the assay with prostate line LNCap, 110 nM; in the assay on breast line MDA468, 230 nM.

Regarding `O=C(Nc1ccc(-c2nc(N3CC4CCC(C3)O4)c3cnn(CCO)c3n2)cc1)Nc1ccc(N2CCOCC2)nc1` [Example 206, 1-{4-[1-(2-hydroxyethyl)-4-(8-oxa-3-azabicyclo[3.2.1]oct-3-yl)-1H-pyrazolo[3,4-d]pyrimidin-6-yl]phenyl}-3-(6-morpholin-4-ylpyridin-3-yl)urea], the IC50 against Human mTOR (FLAG-TOR) came to 0.7 nM; at PI3K [1] (PI3 Kinase α) it was 469 nM; at PI3K [2] (PI3 Kinase γ) it was 11800 nM; with prostate line LNCap it was 190 nM; with breast line MDA468, 120 nM.

Take `CN(C)CCn1ncc2c(N3CC4CCC(C3)O4)nc(-c3ccc(NC(=O)Nc4ccc(CO)cc4)cc3)nc21` [Example 163, 1-(4-{1-[2-(dimethylamino)ethyl]-4-(8-oxa-3-azabicyclo[3.2.1]oct-3-yl)-1H-pyrazolo[3,4-d]pyrimidin-6-yl}phenyl)-3-[4-(hydroxymethyl)phenyl]urea]: the IC50 amounted to 0.88 nM on Human mTOR (FLAG-TOR); 43 nM on PI3K [1] (PI3 Kinase α); 1290 nM on PI3K [2] (PI3 Kinase γ); 28 nM in the assay with prostate line LNCap; 90 nM with breast line MDA468.
